In publication PMC11176637 (iScience, 2024):
pIC50: −log10 of the molar value.

System: VSVΔG-SW (S glycoprotein of the SARS-CoV-2 Wuhan variant)
Assay: microbe, parasite or virus in culture
Format: cell-based
Conditions: for IC50 against VSVΔG-SW: 0.3125–40 μM

| Structure (SMILES) | IC50 against VSVΔG-SW | pIC50 (Severe acute respiratory syndrome coronavirus 2, read-out: IC50 against VSVΔG-SW) |
| --- | --- | --- |
| CNC(=O)C(C#N)(Cc1cc(Cl)cc2c1OCOC2)Cc1cc(Cl)cc2c1OCOC2 [PCM-0068389, N-methyl3-(6-chloro-2,4-dihydro-1,3-benzodioxin-8-yl)-2-[(6-chloro-2,4-dihydro-1,3-benzodioxin-8-yl)methyl]-2-cyanopropionamide] | lost all activity | – |
| Cc1cccc(NC(=O)CS(=O)(=O)c2nc(-c3ccccc3)cn2-c2ccc(Cl)cc2)c1C [PCM-0163855, 2-((1-(4-chlorophenyl)-4-phenyl-1H-imidazol-2-yl)sulfonyl)-N-(2,3-dimethylphenyl)acetamide] | – | 6.22 |
| COc1ccc2cc3c(N)nn(C(=O)Cc4c[nH]c5ccccc45)c3nc2c1 [PCM-0166392, 1-{6-amino-12-methoxy-2,4,5-triazatricyclo[7.4.0.0³,⁷]trideca-1,3(7),5,8,10,12-hexaen-4-yl}-2-(3-indolyl)-1-ethanone] | relatively high activity | – |
| Nc1nc(Nc2ccccc2)sc1C(=O)c1ccccc1Cl [PCM-0179622, (4-amino-2-anilino-1,3-thiazol-5-yl)(o-chlorophenyl)methanone] | relatively high activity | – |
